{"source": "patent US20250011296A1", "about": "“MODULATORS OF MOLECULAR TARGETS EXPRESSED IN METABOLIC AND INFLAMMATORY DISORDERS” (Ohio State Innovation Foundation, priority 2021, published 2025)", "key": {"NFκB": {"target": "T1, NFκB (Homo sapiens, UniProt Q04206)", "T1 construct": "endogenous in cells; host or cells: HeLa cells (ATCC), nuclear extract", "T1 sequence (Q04206 whole entry)": "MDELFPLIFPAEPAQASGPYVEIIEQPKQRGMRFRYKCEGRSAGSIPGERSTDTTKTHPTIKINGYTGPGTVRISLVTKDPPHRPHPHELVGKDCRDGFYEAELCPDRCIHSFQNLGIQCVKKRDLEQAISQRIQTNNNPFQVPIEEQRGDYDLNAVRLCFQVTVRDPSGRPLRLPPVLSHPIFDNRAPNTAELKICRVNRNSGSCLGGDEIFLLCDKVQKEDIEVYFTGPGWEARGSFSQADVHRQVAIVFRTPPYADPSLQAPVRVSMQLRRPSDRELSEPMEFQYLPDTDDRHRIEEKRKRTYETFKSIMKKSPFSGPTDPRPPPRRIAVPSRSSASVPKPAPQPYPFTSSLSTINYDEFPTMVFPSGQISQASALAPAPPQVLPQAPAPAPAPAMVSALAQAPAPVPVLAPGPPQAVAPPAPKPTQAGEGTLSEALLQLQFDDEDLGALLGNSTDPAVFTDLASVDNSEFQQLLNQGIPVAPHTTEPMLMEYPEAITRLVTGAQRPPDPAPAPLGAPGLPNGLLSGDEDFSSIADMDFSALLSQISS", "test": "NFκB assay (EZ-Detect Transcription Factor Assay kit; TNF-α-treated HeLa cells, nuclear extracts)", "assay_type": "cell-based", "procedure": "To assess the ability of natural product extracts and compounds to inhibit the specific binding of activated NFκB transcription factor to the biotinylated consensus sequence, the EZ-Detect™ Transcription Factor Assay kit (Pierce Biotechnology) was used according to the kit manual and established protocol. HeLa cells (ATCC) were treated with each test sample and TNF-α, nuclear extracts harvested using the NE-PER kit (Pierce Biotechnology), and protein content equilibrated using the Pierce BCA Protein Assay kit (Pierce Biotechnology). Specific binding was detected through quantification of chemiluminescent signal in a plate reader (FLUOstar Optima, BMG Labtechnologies GmbH, Inc.)."}, "PPAR-γ": {"target": "T2, PPAR-γ (Homo sapiens, UniProt P37231)", "T2 construct": "endogenous in cells; host or cells: CCD-112CoN normal colon cells or HeLa cells (ATCC), nuclear extract", "T2 sequence (P37231 1-505)": "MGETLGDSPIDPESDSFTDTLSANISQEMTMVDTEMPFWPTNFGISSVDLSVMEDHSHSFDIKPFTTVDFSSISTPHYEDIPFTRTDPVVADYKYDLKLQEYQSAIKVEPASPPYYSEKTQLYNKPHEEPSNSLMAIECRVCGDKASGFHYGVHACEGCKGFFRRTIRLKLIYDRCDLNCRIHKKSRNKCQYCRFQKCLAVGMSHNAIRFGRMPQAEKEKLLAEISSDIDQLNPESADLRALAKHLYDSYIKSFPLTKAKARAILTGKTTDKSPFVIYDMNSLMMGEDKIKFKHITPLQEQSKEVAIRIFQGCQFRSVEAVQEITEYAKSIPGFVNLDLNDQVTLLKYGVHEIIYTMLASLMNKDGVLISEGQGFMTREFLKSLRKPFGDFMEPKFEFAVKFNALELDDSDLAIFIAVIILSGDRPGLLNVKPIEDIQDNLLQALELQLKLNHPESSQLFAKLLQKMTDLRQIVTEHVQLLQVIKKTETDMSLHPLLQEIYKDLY", "test": "PPAR-γ ELISA assay (PPAR-α,γ,δ Complete Transcription Factor Assay Kit; CCD-112CoN or Hela cells, nuclear extracts)", "assay_type": "cell-based", "procedure": "To evaluate the ability of natural product extracts and compounds to induce specific binding of PPAR-γ transcription factor in nuclear extracts to immunosorbed peroxisome proliferator response element, the PPAR-α,γ,δ Complete Transcription Factor Assay Kit (Cayman Chemical Company) was used according to the kit protocol. 303 CCD-112CoN normal colon cells or Hela cells (ATCC) were treated with mace extracts or isolated compounds for 24 h, nuclear extracts were harvested using the NE-PER kit (Pierce Biotechnology), and protein content equilibrated using the Pierce BCA Protein Assay kit (Pierce Biotechnology). Specific binding was detected through quantification of absorptivity at 630 nm in a BioTek uQuant microplate reader (BioTek Instruments, Inc.). […] Licarin A derivatives 45-48 were screened through the panel of in vitro assays to evaluate their potential as antidiabetic compound leads. […] Methods for the assay were as described above."}, "PPAR-γ expression": {"test_system": "PPAR-γ expression", "test": "Larval diabetic zebrafish assay, Western blot of PPAR-γ", "assay_type": "in vivo", "conditions": "diabetic zebrafish larvae, 10 μM", "procedure": "Western blot analysis of zebrafish expression levels for glycated hemoglobin, metabolic enzymes, and molecular targets NFκB and PPAR-γ was performed to evaluate potential lead improvement and to discover possible mechanisms of action.\nWild-type zebrafish were sorted into 24-well microplates with 10 fish per well for a four-phase treatment cycle. At 72 hpf, type 2 diabetes was induced by administering 0.5 mg/mL alloxan in fish water for percutaneous absorption. […] At 78 hpf, the incubation solution was changed to 10 mg/ml D-glucose for 30 minutes, followed by a phase-four rinse in fresh system w Following the four-phase treatment cycle, zebrafish treatment groups were snap frozen in microcentrifuge tubes on dry ice, stored overnight at −80° C., thawed, and homogenized with 2 μL PBS per animal. Following centrifugation (60 minutes at 4° C. and 17,000 rpm), protein content of the homogenate supernatant was determined using the Pierce BCA Protein Assay kit (Pierce Biotechnology). Homogenates were analyzed by Western blot with equal amounts of total protein (20 μg) in each sample and using 4×LDS loading buffer (NuPAGE Life Technologies).\n(§1) Electrophoresis was performed with NuPAGE MES SDS Running Buffer and using the XCell SureLock Mini-Cell Electrophoresis System (Life Technologies). Proteins separated on the gel were transferred to a PVDF membrane using TBST buffer. The blots were blocked in 3% BSA in TBST and subsequently probed overnight with primary antibodies (1:1000 in 1% BSA in TBST) against each target of interest. Following TBST rinses, secondary HRP-conjugated antibodies (1:2000) were applied to the membrane for 60 minutes. The HRP conjugated antibodies were detected using SuperSignal West Femto chemiluminescent substrate (Pierce Biotechnology) and immunoblot images were captured using the luminometer and Lumi Analyst 3.0 software.\n(§2) Band densities were determined using ImageJ Gel Analysis to determine expression levels of each protein of interest. Expression levels of HbA1C, PPAR-γ, and NFκB were organized into a bar graphs (FIG. 5) with band densities calculated in comparison to the housekeeping gene β-actin, normalized to the untreated diabetic group (B) of zebrafish. […]."}, "[1]": {"test_system": "HbA1C (glycated hemoglobin) expression", "test": "Larval diabetic zebrafish assay, Western blot of HbA1C", "assay_type": "in vivo", "conditions": "diabetic zebrafish larvae, 10 μM", "procedure": "(§3) Following isolation, derivatization, and analysis of compounds 41-48 through the in vitro panel of assays, the mace natural products and licarin A derivatives were investigated in the larval diabetic zebrafish assay for potential antidiabetic activity. Western blot analysis of zebrafish expression levels for glycated hemoglobin, metabolic enzymes, and molecular targets NFκB and PPAR-γ was performed to evaluate potential lead improvement and to discover possible mechanisms of action.\n(§4) Wild-type zebrafish were sorted into 24-well microplates with 10 fish per well for a four-phase treatment cycle. At 72 hpf, type 2 diabetes was induced by administering 0.5 mg/mL alloxan in fish water for percutaneous absorption. After three hours of alloxan treatment, phase two of the treatment cycle was initiated by administering 10 μM doses of natural product compounds 41-43 (FIG. 4) or derivatives 45-48 (FIG. 6) with 0.01% DMSO in system water. At 78 hpf, the incubation solution was changed to 10 mg/ml D-glucose for 30 minutes, followed by a phase-four rinse in fresh system w Following the four-phase treatment cycle, zebrafish treatment groups were snap frozen in microcentrifuge tubes on dry ice, stored overnight at −80° C., thawed, and homogenized with 2 μL PBS per animal. Following centrifugation (60 minutes at 4° C. and 17,000 rpm), protein content of the homogenate supernatant was determined using the Pierce BCA Protein Assay kit (Pierce Biotechnology). Homogenates were analyzed by Western blot with equal amounts of total protein (20 μg) in each sample and using 4×LDS loading buffer (NuPAGE Life Technologies). The immunoblot samples were heated at 95° C. for 5 minutes and loaded onto NuPAGE Bis-Tris 4-12% gradient SDS-PAGE gels.\nas §1, §2"}, "PEPCK expression": {"test_system": "PEPCK expression", "test": "Larval diabetic zebrafish assay, Western blot of PEPCK", "assay_type": "in vivo", "conditions": "duplicate Western blot (FIG. 10), diabetic zebrafish larvae, 10 μM", "procedure": "as §3, §4, §1, §2"}, "[2]": {"conditions": "Table 20 summary, read-out: NFκBIC50"}, "[3]": {"conditions": "preliminary Western blot (FIG. 4/5)"}, "[4]": {"conditions": "preliminary Western blot (FIG. 5), not in replicate"}}, "note": "Entries after “also recorded” stand apart in the source; their conditions may differ. Like-named read-outs stand apart in the source and are kept apart here."}
{"smiles": "C/C=C/c1cc(OC)c2c(c1)[C@H](C)[C@@H](c1ccc3c(c1)OCO3)O2", "note": "[Compound 41, licarin B]", "values": [{"measurement": "IC50", "setting": "NFκB; [2]", "result": 479, "unit": "nM"}, {"measurement": "IC50", "setting": "NFκB; in vitro NFκB assay", "result": 475, "unit": "nM"}, {"measurement": "PPAR-γ % activation", "setting": "PPAR-γ; Table 14, isolates at 50 μg/mL", "result": 45, "unit": "%"}, {"measurement": "PPAR-γ % activation", "setting": "PPAR-γ; Table 20 summary, 50 μg/mL", "result": 45, "unit": "%"}, {"measurement": "PPAR-γ expression (band density)", "setting": "PPAR-γ expression; [3]", "result": "did not upregulate PPAR-γ expression"}, {"measurement": "HbA1C expression (band density)", "setting": "[1]; [4]", "result": "HbA1C levels even lower than those treated with the thiazolidinedione rosiglitazone; also recorded: excellent hypoglycemic effect"}]}
{"smiles": "C/C=C/c1cc(OC)c2c(c1)[C@H](C)[C@@H](c1ccc(O)c(OC)c1)O2", "note": "[Compound 42, licarin A]", "values": [{"measurement": "IC50", "setting": "NFκB; Table 13, tested at 50, 5, 0.5 and 0.05 μg/mL", "result": 30.6, "unit": "nM"}, {"measurement": "IC50", "setting": "NFκB; [2]", "result": 30.6, "unit": "nM"}, {"measurement": "IC50", "setting": "NFκB; in vitro NFκB assay", "result": 30.6, "unit": "nM"}, {"measurement": "PPAR-γ activity, % as active/effective as positive control rosiglitazone", "setting": "PPAR-γ; 50 μg/mL", "result": 81, "unit": "%"}, {"measurement": "PPAR-γ % activation", "setting": "PPAR-γ; Table 14, isolates at 50 μg/mL", "result": 81, "unit": "%"}, {"measurement": "PPAR-γ % activation", "setting": "PPAR-γ; Table 20 summary, 50 μg/mL", "result": 81, "unit": "%"}, {"measurement": "PPAR-γ activity in vitro", "setting": "PPAR-γ; preliminary screening, 50 μg/mL", "result": "moderate PPAR-Y activity"}, {"measurement": "PEPCK expression (band density)", "setting": "PEPCK expression", "result": "retained low PEPCK expression"}, {"measurement": "PPAR-γ expression (band density)", "setting": "PPAR-γ expression; duplicate Western blot (FIG. 8)", "result": "reliably intermediate between the rosiglitazone-treated and untreated diabetic groups"}, {"measurement": "PPAR-γ expression (band density)", "setting": "PPAR-γ expression; [3]", "result": "greater PPAR-γ expression that 41"}, {"measurement": "HbA1C expression (band density)", "setting": "[1]; duplicate Western blot (FIG. 7)", "result": "most effective test samples for decreasing HbA1C"}, {"measurement": "HbA1C expression (band density)", "setting": "[1]; [4]", "result": "least effective of the three natural products at reducing HbA1C expression"}]}
